Measurements: patent EP0146338A2, “A blood accelerator 2, 3-diphosphoglyceric acid” (SHIRATORI PHARMACEUTICAL CO. LTD., priority 1983, dated 1985)

How the values were obtained:
[1] = test system: human ACD (acid chitorate dextrose) preserved blood; assay: 2,3-DPG level after addition of naphthoquinone to preserved blood (Keitt's method); assay type: cell-based; settings: for Blood level of 2,3-DPG: One hundred PM naphthoquinone in 1 ml human ACD preserved blood, 60 min at 37°C, control 294; for Concentrations of 2,3-DPG: preserved blood, mean ± standard error, n=30
Toxicity (LD50), mouse = settings: in vivo
Toxicity (LD50), rat = settings: in vivo, po
[2] = test system: fresh blood taken from a patient with an ischemic disease; assay: 2,3-DPG level after addition of vitamin K3 to fresh blood of patients with an ischemic disease; assay type: cell-based, human; settings: 100 µM
Experimental: One hundred PM of each naphthoquinone (use 10 mM naphthoquinone dissolved in 50 % ethanol solution) was added to 1 ml of human ACD (acid chitorate dextrose) preserved blood (of which 2,3-DPG concentration had decreased to 1/20 of the normal level). After incubation for 60 min at 37°C, the reaction was stopped by addition of perchloric acid. According to Keitt's method (J. Lab. Clin. Med. 77, 470-475 (1971)), thereafter, 2,3-DPG was extracted and quantified.
One hundred µM of vitamin K3 was added in 1 ml of fresh blood taken from a patient with an ischemic disease, and the concentration of 2,3-DPG was determined in the same manner as in Example 1.

Q: Which “Blood level of 2,3-DPG” value [1] does the source give for `O=C1C=C(S(=O)(=O)O)c2ccccc2C1=O` [1,2-Naphthoquinone-4-sulfonic acid, 1,2-naphthoquinone-4-sulfonic acid] here?
A: The value was 3923 n moles/ml RBC.

Q: What about the LD50 (Toxicity (LD50), mouse; ip) of the same compound?
A: The LD50 was 625 mg/kg.

Q: For `O=C1C=CC(=O)c2ccccc21` [1,4-Naphthoquinone, 1,4-naphthoquinone], which LD50 (Toxicity (LD50), rat) is on record?
A: The LD50 was 190 mg/kg.

Q: What about the “Blood level of 2,3-DPG” value [1] of the same compound?
A: The value was 3554 n moles/ml RBC.

Q: Which “Blood level of 2,3-DPG” value [1] does the source give for `O=C1C(Cl)=C(Cl)C(=O)c2ccccc21` [2,3-Dichloro-1,4-naphthoquinone, 2,3-dichloro-1,4-naphthoquinone] here?
A: Its value is 3971 n moles/ml RBC.

Q: Which “blood levels of 2,3-DPG in the patients with ischemic diseases (in words)” value ([2]; normal subjects 4931± 53) does the source give for `CC1=CC(=O)c2ccccc2C1=O` [Vitamin K3, 2-methyl-l,4-naphthoqunone] here?
A: The value was “recovered to the normal level or higher levels”.

Q: And the “Concentrations of 2,3-DPG” value ([2]; Buerger's Disease, n=12, no addition 4253±287)?
A: The value was 5490±117(12) n moles/ml RBC.

Q: And the “Concentrations of 2,3-DPG” value ([2]; Closed arteriosclerosis, n=15, no addition 4796±365)?
A: Its value is 5624±266(15) n moles/ml RBC.

Q: And the “Blood level of 2,3-DPG” value [1]?
A: Its value is 3660 n moles/ml RBC.

Q: And the “Concentrations of 2,3-DPG” value ([1]; dose 10 µM, dose 0: 227 ± 15)?
A: The value was 1124 ± 107 (30) n moles/ml RBC.

Q: What about the “Concentrations of 2,3-DPG” value ([1]; dose 100 µM) of the same compound?
A: Its value is 3256 ± 244 (30) n moles/ml RBC.

Q: And the “Concentrations of 2,3-DPG” value ([1]; dose 1000 µM)?
A: The value was 5144 ± 253 (30) n moles/ml RBC.

Q: What about the “Concentrations of 2,3-DPG” value ([1]; dose 10000 µM) of the same compound?
A: Its value is 5569 ± 311 (30) n moles/ml RBC.

Q: And the LD50 (Toxicity (LD50), mouse; po)?
A: Its LD50 is 500 mg/kg.
